Reference: patent US12628822B2, “Plant pathogen defence elicitors” (UNIVERSITÉ LIBRE DE BRUXELLES, priority 2020, dated 2026)

How the values were obtained:
MPK3/6 = experiment: Western-blot analysis of MPK3/6 phosphorylation; assay type: in vivo, Arabidopsis thaliana; settings: 100 μM, 5 mins after treatment, Col-0 plants
Method: FIG. 10d illustrates early immunohistochemical quantification or Western-blot analysis of the MPK3/6 phosphorylation after the indicated treatments. […] Leaves were collected 5 mins after treatment, immediately frozen in liquid nitrogen, and stored at −80° C. for analysis. […] The separated proteins were transferred on a 0.45-μm Immobilon-PPVDF membrane (Millipore). Blocking was performed in TBST containing 5% non-fat dry milk, and blots were incubated overnight at 4° C. with specific antibodies (anti-AtMPK6 and anti-Phospho-p44/42 MPK (Thr202/Tyr204)), washed in TBST, and incubated with the secondary antibody anti-Rabbit IgG conjugated with horseradish peroxidase (HRP) enzyme diluted to 1/10,000. The chemiluminescent detection of HRP was performed withClarity™Western ECL Substrate and ChemiDoc™MP Imaging System.

defence marker genes = experiment: qPCR analysis of defence marker gene expression in Arabidopsis plants; assay type: in vivo, Arabidopsis thaliana
Method: Arabidopsis thaliana Columbia (Col-0) was the accession used for all the experiments. Seeds were surface sterilised by subsequent treatment with 50% v/v Et-OH and 3% bleach solution in agitation for 5 and 10 min, respectively. Seeds were then washed three times with distilled water and stratified for 3 days at 4° C. in the dark. For qPCR analysis and microarray experiments, seeds were sown on square petri dishes ([…]) containing half strength Murashige and Skoog (MS) salt, 2.5 mM MES, 1% w/v sucrose and 0.8% w/v plant agar. The experiments were performed using 14-day old seedlings grown vertically in a controlled growth cabinet with short day conditions ( 8/16 h light/dark; 100 μmol photons m^−2 s^−1) at 22±0.5° C. Treatments were performed by applying 40-50 μl of fresh-prepared and filtered solution per seedling.
For RNA extraction, 14-day old leaves from ten independent plants were collected at the indicated time point after treatments, pooled and frozen in liquid nitrogen. Total RNA was extracted from 100 mg of ground-frozen samples using the Maxwell® LEV Plant RNA Kit (Promega, Madison, WI, USA) and the RNA integrity was determined through NanoDrop 2000 UV-Vis Spectrophotometer (Thermo Scientific, Loughborough, UK). First-strand cDNA was synthesized by using SOLIScript® RT cDNA synthesis MIX (Solis Biodyne, Tartu, Estonia) and qPCRs were performed using SYBR® Selected MasterMix 2× (Applied Biosystems, Thermo Fisher Scientific, Waltham, USA), following the manufacturers' protocols. The cycling conditions consisted of an initial 7 min at 95° C., followed by 40 two-step cycles at 95° C. for 5 s and at 60° C. for 30 s. Melting curve analysis was performed after cycle completion to validate amplicon identity. Relative expression levels were calculated following the standard curve-based method (Larionov et al. A standard curve based method for relative real time PCR data processing, BMC Bioinformatics. 2005, vol. 6, 1) by using ACTIN as reference. Gene-specific primers used in this work are indicated below. […]

callose deposition = experiment: Callose staining in Arabidopsis leaves; assay type: in vivo, Arabidopsis thaliana; settings: 6 and 24 h after treatment; 100 μM AA9_COS, 100 μM cellobiose or 1 μM FLG22; 5-week old plants
Method: Callose deposits quantification was performed essentially as described by Zarattini et al. (The bile acid deoxycholate elicits defences in Arabidopsis and reduces bacterial infection. Mol Plant Pathol. 2017, vol. 18(4), 540-554). […] Leaves were examined by stereofluorescence microscopy with an Azio Zoom V.16 (Carl Zeiss Inc., Oberkochen, Germany) and callose spots were quantified using ImageJ software.
Among them, several genes were associated to callose deposition in the cell wall (FIG. 4).

camalexin = experiment: Camalexin quantification by LC-MS; assay type: in vivo, Arabidopsis thaliana; settings: 100 μM, 24 h, 14-day-old Col-0 plants
Method: For each treatment, camalexin was extracted from a pool of 14-day-old Arabidopsis. Briefly, 100 mg of ground-frozen samples were soaked using 80% (v:v) methanol in 1:1 (m/v) ratio. After homogenization, the supernatant was recovered through centrifugation at 17,000×g for 5 min and evaporated at 50° C. in nitrogen gas atmosphere. The residues were finally resuspended in high-performance LC-grade methanol and filtrated with 0.22-μm filters. Each pool was then analysed three times by LC-MS, using a reverse-phase LUNA® Omega 5 μm Polar C18 column (250×4.6 mm). The mobile phases were composed of 0.1% […] (solvent A) and acetonitrile (solvent B). The applied gradient was as follows: 0-2 min, 10% B; 2-13 min, 10-98% B; 13-23 min, 98% B; 23-25 min, 98-10% B; 25-30 min, […]; post-run 1 min.

Botrytis cinerea = experiment: Protection of tomato plants against Botrytis cinerea (lesion areas); assay type: in vivo; settings: 100 μM; 4 weeks old tomato plants; compared with 100 μM AA9_COS
Method: All experiments were carried on 4 weeks old tomato plants infected with 10^6 spores per millilitres of Botrytis cinerea.
Protection of tomatoes plant against pathogen Botrytis cinerea using several combinations of native cellodextrines, and C1-oxidised, C4-oxidised, and optionally C1- and C4-oxidised (double oxidised) cellodextrines was tested (FIG. 14). In particular, the numerals in FIG. 14 represent mixtures with the following molar proportions of the respective cellodextrins components: • native:C1-oxidised:C4-oxidised • (1) 4:5:1; (2) 6.5:3:0.5; (3) 3:6.5:0.5; (4) 4:3:3; (5) 4:1:5; (6) 0.5:9:0.5; • native:C1-oxidised:C4-oxidised:doubly oxidised • (7) 0.5:4:0.5:5; (8) 2.5:2.5:2.5:2.5.
All experiments were carried on 4 weeks old tomato plants infected with 10^6 spores of Botrytis cinerea. All mixtures were applied having the same molar mass concentration of 100 μM.

[1] = vs CTR, same array-hybridised RNA

Structure (SMILES): OC[C@H]1O[C@@H](O[C@H]2[C@H](O)[C@@H](O)[C@H](O)O[C@@H]2CO)[C@H](O)[C@@H](O)[C@@H]1O [Cellobiose, β-D-glucopyranosyl(1→4)D-glucopyranose]
- Early MPK3/6 phosphorylation (MPK3/6): no phosphorylation was observed
- mRNA accumulation of MPK3/6, WRKY33, PAD3 and PEN3 (defence marker genes; 100 μM, 1 and 24 hours, 14-day old plants): lower magnitude of expression
- LOX4 (AT1G72520) gene expression, qPCR (defence marker genes; [1]): 0.69 fold change
- MPK3 (AT3G45640) gene expression, qPCR (defence marker genes; [1]): 0.02 fold change
- MPK6 (AT2G43790) gene expression, qPCR (defence marker genes; [1]): 0.55 fold change
- PAD3 (AT3G26830) gene expression, qPCR (defence marker genes; [1]): −1.06 fold change
- PEN3 (AT1G59870) gene expression, qPCR (defence marker genes; [1]): 1.07 fold change
- PR1 (AT2G14610) gene expression, qPCR (defence marker genes; [1]): 1.29 fold change
- WRKY18 (AT4G31800) gene expression, qPCR (defence marker genes; [1]): 2.60 fold change
- WRKY22 (AT4G01250) gene expression, qPCR (defence marker genes; [1]): 1.10 fold change
- WRKY33 (AT2G38470) gene expression, qPCR (defence marker genes; [1]): 1.31 fold change
- IGMT2 (At1G21120) gene expression, qPCR (defence marker genes; vs mock, same array-hybridised RNA): −1.59 fold change
- callose accumulation (callose deposition): no visible callose spots
- camalexin level (camalexin): 3.7 ± 1.8 ng/g
- protection of tomato plants (size of lesion areas) (Botrytis cinerea): less protective effect
